The test system of one experiment is HSV-1 (McIntyre Strain). As to the kind of experiment: HSV-1 replication in human foreskin fibroblasts (virus titre). In kind it is cell-based, Herpes Simplex virus. The note with it: for Virus titre: human fibroblasts; for Reduction factor: virus titre vs untreated. The procedure: FIG. 1A relates to the concentration of S-acetyl glutathione of 20 mM, and FIG. 1B to the concentration of 10 mM. […] With the evaluation model used, a combination index of less than 1 signifies a synergistic effect, a combination index equal to 1 an additive effect, and a combination index of greater than 1 an antagonistic effect.

The next experiment has as its system VZV (Strain 4400/95). To be noted: RPE cells.
Setting [1] is: S-acetyl glutathione 10 mM alone.
The mark [2] stands for this setting: S-acetyl glutathione 20 mM alone.

Like-named read-outs stand apart in the source and are kept apart here. Bounds are passed on as bounds.

Turning to `Nc1nc2c(ncn2COCCO)c(=O)[nH]1` [ACV, 9-[(2-hydroxyethoxy)methyl)guanine], the Virus titre with HSV-1 (McIntyre Strain) (ACV 0.5 μM alone) was 3.1 × 10^6 TCID60/ml; in the experiment on HSV-1 (McIntyre Strain) (ACV 1 μM alone) it was 3.3 × 10^5 TCID60/ml; with HSV-1 (McIntyre Strain) (ACV 2 μM alone) it was 3.8 × 10^3 TCID60/ml. The Reduction factor was 6.8 in the experiment with HSV-1 (McIntyre Strain) (ACV 0.5 μM alone), 64 with HSV-1 (McIntyre Strain) (ACV 1 μM alone) and 5526 in the experiment with HSV-1 (McIntyre Strain) (ACV 2 μM alone). Also, the “Effectiveness against HSV-1” value in the experiment on HSV-1 (McIntyre Strain) (ACV alone, especially in the concentration of 2 μM) is “clear effectiveness”.

As to `CC(=O)SC[C@H](NC(=O)CC[C@H](N)C(=O)O)C(=O)NCC(=O)O` [S-acetyl glutathione], the Virus titre was 1.5 × 10^6 TCID60/ml in the experiment on HSV-1 (McIntyre Strain) (setting [1]) and 2.4 × 10^5 TCID60/ml in the experiment with HSV-1 (McIntyre Strain) (setting [2]). Also, the Reduction factor came to 14 in the experiment on HSV-1 (McIntyre Strain) (setting [1]) and 91 with HSV-1 (McIntyre Strain) (setting [2]). Besides, in the experiment on HSV-1 (McIntyre Strain) (S-acetyl glutathione alone), the “Concentration from which effective against HSV-1” value is recorded as at least 10 mM. For the same compound, the Plaque number was determined as 59% in the experiment with VZV (Strain 4400/95) (setting [1]) and 52% in the experiment on VZV (Strain 4400/95) (setting [2]).

These data come from patent publication US6448227B1, “Therapeutically effective substance mixture” (priority 1999, dated 2002).
